In test [1] the target is PKA-C^WT (catalytic α subunit of cAMP-dependent protein kinase A) (Homo sapiens, UniProt P17612). As to the kind of experiment: steady-state coupled enzyme assay. It counts as biochemical.
Test [2] concerns the target PKA-C^E31V (catalytic α subunit of cAMP-dependent protein kinase A) (Homo sapiens, UniProt P17612, E32V). Put plainly: steady-state coupled enzyme assay. It counts as biochemical.

Where no end group is shown, it is not given here.

Consider LRRASLG [Kemptide], for which the “steady-state coupled enzyme assay (kcat/KM)” value in test [1] is recorded as 0.41 ± 0.05; in test [2], 0.46 ± 0.04.
